Experimental data from PubChem BioAssay AID256 (DTP/NCI, 2004).
“And” between values parts separate entries of the source, which are not always exact repeats. Equal entries are not always repeated. Inconclusive results and toxic doses are left out. How the source made its calls: active means survival T/C of 150% or more; inactive means T/C below 125% in these data.

Test system: CD2F1 mice, L1210 leukemia ip, survival T/C
Test: NCI In Vivo Anticancer Drug Screen. Data for tumor model L1210 Leukemia (intraperitoneal) in CD2F1 (CDF1) mice
Conditions: endpoint: mean survival time, higher = longer survival
Procedure, shortened: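 Compound-dosed mice with transplantable tumor versus matched vehicle controls; endpoint ratio T/C reported.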

[1] = dose: 100.0 mg/kg/injection, schedule: Q01DX009 (ip), vehicle: saline with Tween-80
[2] = dose: 100.0 mg/kg/injection, schedule: Q04DX003 (ip), vehicle: saline with Tween-80
[3] = dose: 200.0 mg/kg/injection, schedule: Q01DX009 (ip), vehicle: saline with Tween-80
[4] = dose: 200.0 mg/kg/injection, schedule: Q04DX003 (ip), vehicle: saline with Tween-80
[5] = dose: 400.0 mg/kg/injection, schedule: Q04DX003 (ip), vehicle: saline with Tween-80
[6] = dose: 100.0 mg/kg/injection, schedule: Q01DX001 (ip), vehicle: saline with Tween-80
[7] = dose: 200.0 mg/kg/injection, schedule: Q01DX001 (ip), vehicle: saline with Tween-80
[8] = dose: 400.0 mg/kg/injection, schedule: Q01DX001 (ip), vehicle: saline with Tween-80
[9] = dose: 25.0 mg/kg/injection, schedule: Q01DX009 (ip), vehicle: water
[10] = dose: 50.0 mg/kg/injection, schedule: Q01DX009 (ip), vehicle: water
[11] = dose: 100.0 mg/kg/injection, schedule: Q01DX009 (ip), vehicle: water
[12] = dose: 200.0 mg/kg/injection, schedule: Q01DX009 (ip), vehicle: water
[13] = dose: 400.0 mg/kg/injection, schedule: Q01DX009 (ip), vehicle: water
[14] = dose: 400.0 mg/kg/injection, schedule: Q01DX009 (ip), vehicle: saline with Tween-80
[15] = dose: 100.0 mg/kg/injection, schedule: Q01DX009 (ip), vehicle: saline
[16] = dose: 200.0 mg/kg/injection, schedule: Q01DX009 (ip), vehicle: saline
[17] = dose: 400.0 mg/kg/injection, schedule: Q01DX009 (ip), vehicle: saline

Measured: T/C

COc1ccc2c(c1O)-c1cc(O)cc3c1C(C2)N(CCCl)CC3 (centres undefined)
inactive: dose: 3.13 mg/kg/injection, schedule: Q04DX003 (ip), vehicle: water 104 % of control | dose: 6.25 mg/kg/injection, schedule: Q04DX003 (ip), vehicle: water 102 % of control | dose: 12.5 mg/kg/injection, schedule: Q04DX003 (ip), vehicle: water 105 % of control | dose: 25.0 mg/kg/injection, schedule: Q04DX003 (ip), vehicle: DMSO 102 % of control | dose: 25.0 mg/kg/injection, schedule: Q04DX003 (ip), vehicle: water 100 % of control | dose: 50.0 mg/kg/injection, schedule: Q04DX003 (ip), vehicle: water 88 % of control

O=C(NS(=O)(=O)c1ccc(Cl)cc1)OCCCl
inactive: [1] 96 % of control | [2] 97 % of control | [3] 96 % of control | [4] 97 % of control | [5] 102 % of control

NC(CCl)=NCC1C2CC3CC(C2)CC1C3 (centres undefined)
inactive: dose: 6.25 mg/kg/injection, schedule: Q04DX002 (ip), vehicle: saline 96 % of control | dose: 12.5 mg/kg/injection, schedule: Q04DX002 (ip), vehicle: saline 93 % of control | dose: 25.0 mg/kg/injection, schedule: Q04DX002 (ip), vehicle: saline 90 % of control | dose: 50.0 mg/kg/injection, schedule: Q04DX002 (ip), vehicle: saline 96 % of control | dose: 100.0 mg/kg/injection, schedule: Q01DX001 (ip), vehicle: Klucel (hydroxypropylcellulose) (HPC) 107 % of control | dose: 200.0 mg/kg/injection, schedule: Q01DX001 (ip), vehicle: Klucel (hydroxypropylcellulose) (HPC) 98 % of control

O=[N+]([O-])c1ccccc1-c1ccc(Cl)cc1
inactive: [6] 88 % of control | [7] 91 % of control | [8] 92 % of control

COc1cccc(C(O)c2ccncc2)c1OC (centres undefined)
inactive: [9] 96 % of control | [10] 105 % of control | [11] 98 % of control | [12] 93 % of control | [13] 91 % of control

CC1(C(N)=O)OC12CCCCC2 (centres undefined)
inactive: [2] 95 % of control | [4] 97 % of control | [5] 97 % of control

CN(C)c1nc(=[N+](C)C)ss1
inactive: dose: 50.0 mg/kg/injection, schedule: Q01DX009 (ip), vehicle: saline with Tween-80 104 % of control | [1] 101 % of control and 107 % of control | [2] 102 % of control | [3] 93 % of control and 107 % of control | [4] 98 % of control | [14] 93 % of control | [5] 90 % of control

[I][Pt+2][I].[NH-]c1ccc(F)cc1.[NH-]c1ccc(F)cc1
inactive: dose: 3.13 mg/kg/injection, schedule: Q04DX003 (ip), vehicle: distilled water + Tween-80 108 % of control | dose: 6.25 mg/kg/injection, schedule: Q04DX003 (ip), vehicle: distilled water + Tween-80 108 % of control | dose: 12.5 mg/kg/injection, schedule: Q04DX003 (ip), vehicle: distilled water + Tween-80 98 % of control | dose: 25.0 mg/kg/injection, schedule: Q04DX003 (ip), vehicle: distilled water + Tween-80 101 % of control | dose: 50.0 mg/kg/injection, schedule: Q04DX003 (ip), vehicle: distilled water + Tween-80 108 % of control | dose: 100.0 mg/kg/injection, schedule: Q04DX003 (ip), vehicle: distilled water + Tween-80 87 % of control

CCCC(=O)Nc1ncnc2c1ncn2C1OC2COP(=O)(O)OC2C1OC(=O)CCC (centres undefined)
inactive: dose: 12.5 mg/kg/injection, schedule: Q01DX009 (ip), vehicle: saline 109 % of control | dose: 12.5 mg/kg/injection, schedule: Q01DX009 (ip), vehicle: suspension in saline 98 % of control | dose: 25.0 mg/kg/injection, schedule: Q01DX009 (ip), vehicle: saline 97 % of control | dose: 25.0 mg/kg/injection, schedule: Q01DX009 (ip), vehicle: suspension in saline 100 % of control | dose: 50.0 mg/kg/injection, schedule: Q01DX009 (ip), vehicle: saline 98 % of control | dose: 50.0 mg/kg/injection, schedule: Q01DX009 (ip), vehicle: suspension in saline 100 % of control | [15] 101 % of control | dose: 100.0 mg/kg/injection, schedule: Q01DX009 (ip), vehicle: suspension in saline 105 % of control | [16] 98 % of control | dose: 200.0 mg/kg/injection, schedule: Q01DX009 (ip), vehicle: suspension in saline 94 % of control | [17] 103 % of control | dose: 400.0 mg/kg/injection, schedule: Q01DX009 (ip), vehicle: suspension in saline 115 % of control

CC(C)(C)N1C2CCCC21 (centres undefined)
inactive: dose: 5.0 mg/kg/injection, schedule: Q01DX001 (ip), vehicle: saline 106 % of control | dose: 5.0 mg/kg/injection, schedule: Q01DX009 (ip), vehicle: saline 102 % of control | dose: 10.0 mg/kg/injection, schedule: Q01DX001 (ip), vehicle: saline 106 % of control | dose: 10.0 mg/kg/injection, schedule: Q01DX009 (ip), vehicle: saline 102 % of control | dose: 20.0 mg/kg/injection, schedule: Q01DX001 (ip), vehicle: saline 95 % of control | dose: 20.0 mg/kg/injection, schedule: Q01DX009 (ip), vehicle: saline 100 % of control

O=S(=O)(Nc1c(O)ccc2ccccc12)c1ccccc1
inactive: [2] 97 % of control | [4] 97 % of control | [5] 92 % of control

O=c1[nH]c(Cc2ccccc2)c(N=Nc2ccccc2)c(=O)[nH]1
inactive: [7] 90 % of control | [8] 89 % of control

CCNC1(c2ccccc2)CCCCC1
inactive: dose: 25.0 mg/kg/injection, schedule: Q04DX003 (ip), vehicle: saline 105 % of control

Cc1c(Cl)cccc1NC(=O)CCl
inactive: [2] 100 % of control | [4] 93 % of control | [5] 90 % of control

Cc1ccc(S(=O)(=O)N(O)S(=O)(=O)c2ccc(C)cc2)cc1
inactive: [6] 101 % of control | [1] 94 % of control | [7] 94 % of control | [3] 92 % of control | [8] 100 % of control | [14] 94 % of control

Clc1cc(Cl)c(OCC#CI)cc1Cl
inactive: dose: 50.0 mg/kg/injection, schedule: Q01DX001 (ip), vehicle: carboxymethylcellulose (CMC) 91 % of control | dose: 100.0 mg/kg/injection, schedule: Q01DX001 (ip), vehicle: carboxymethylcellulose (CMC) 102 % of control | dose: 200.0 mg/kg/injection, schedule: Q01DX001 (ip), vehicle: carboxymethylcellulose (CMC) 91 % of control | dose: 400.0 mg/kg/injection, schedule: Q01DX001 (ip), vehicle: carboxymethylcellulose (CMC) 89 % of control

CCOC(=O)COc1ccc(OC)cc1C=O
inactive: [6] 93 % of control | [7] 93 % of control | [8] 97 % of control

O=S1(=O)CCC1
inactive: dose: 75.0 mg/kg/injection, schedule: Q01DX001 (ip), vehicle: saline 114 % of control | dose: 150.0 mg/kg/injection, schedule: Q01DX001 (ip), vehicle: saline 97 % of control | dose: 300.0 mg/kg/injection, schedule: Q01DX001 (ip), vehicle: saline 105 % of control

CSC(=S)N/N=C(\C)c1ccccn1
inactive: dose: 25.0 mg/kg/injection, schedule: Q04DX003 (ip), vehicle: saline with Tween-80 98 % of control | dose: 50.0 mg/kg/injection, schedule: Q04DX003 (ip), vehicle: saline with Tween-80 107 % of control | [2] 110 % of control

O=C(/C=C/c1ccccc1)Cc1ccccc1
inactive: [1] 93 % of control | [2] 92 % of control | [3] 98 % of control | [4] 93 % of control | [14] 88 % of control | [5] 93 % of control

OCC1C=CCC=C1
inactive: [15] 95 % of control | [16] 107 % of control | [17] 101 % of control

COc1cc2c(cc1OC)C(C#N)N(C(=O)c1ccccc1)C=C2 (centres undefined)
inactive: [9] 93 % of control | [10] 100 % of control | [11] 93 % of control | [12] 94 % of control | [13] 86 % of control

CCCCCCCC(=O)Nc1ccc(CC)cc1
inactive: [1] 107 % of control | [2] 95 % of control | [3] 105 % of control | [4] 103 % of control | [14] 107 % of control | [5] 93 % of control

O=S(=O)(OCCCCCOS(=O)(=O)c1cccnc1)c1cccnc1
inactive: dose: 10.0 mg/kg/injection, schedule: Q04DX002 (ip), vehicle: saline with Tween-80 95 % of control | dose: 40.0 mg/kg/injection, schedule: Q04DX002 (ip), vehicle: saline with Tween-80 98 % of control
